# Biological target: T1, papain (Carica papaya, UniProt P00784)
# T1 construct: purchased Sigma Chem. Co
# T1 sequence (P00784 134-345): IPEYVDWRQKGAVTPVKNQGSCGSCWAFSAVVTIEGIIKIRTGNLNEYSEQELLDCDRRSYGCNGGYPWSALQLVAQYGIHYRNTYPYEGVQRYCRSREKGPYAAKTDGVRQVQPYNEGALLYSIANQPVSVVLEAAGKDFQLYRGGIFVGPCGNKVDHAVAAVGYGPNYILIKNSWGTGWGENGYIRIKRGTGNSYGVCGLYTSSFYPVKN
# Assay: Papain inhibitory activity (milk casein proteolysis)
# Format: biochemical
# Design: unit not given beside the values
# Details: amount of inhibitor for 50% inhibition; pH 6.8, 40° C., casein substrate
# Procedure: Papain inhibitory activity of the compounds of the present invention was assayed as follows: To 0.5 ml of a solution of papain (80 μg/ml, Sigma Chem. Co., 2x, cry.), were added 0.25 ml of 40 mM cysteine dissolved in 20 mM disodium ethylenediamine tetraacetic acid solution adjusted pH to 6.8 with sodium hydroxide and 0.25 ml of 33 mM phosphate buffer (pH 6.8) with or without inhibitor. After incubation for 15 minutes at 40° C., the resulting mixture was added to 5 ml of 1% milk casein solution in the same buffer as described above, and further incubated for 10 minutes at 40° C. Then the mixture was mixed with 5 ml of 0.44 M trichloroacetic acid solution and followed by filtration with a sheet of Toyo filter paper No. 4.
# The extinction of the filtrate was read at 280 nm. The percent inhibition was calculated from the formula, 100×(B-A)/B; wherein B stands for the absorbance without inhibitor and A for the absorbance with inhibitor. The compound Nos. in Table 2 are as defined in Examples as described hereinafter.
row,Structure (SMILES),ID50
1,"CCOC(=O)[C@@H]1O[C@H]1C(=O)Nc1cccc(C(F)(F)F)c1 (relative stereo) [Compound No. 2, ethyl N-3'-trifluoromethylphenyl-2,3-epoxysuccinamate]",40.30 γ
2,"CCOC(=O)[C@@H]1O[C@H]1C(=O)Nc1cccc(C(C)=O)c1 (relative stereo) [Compound No. 3, ethyl N-3'-acetylphenyl-2,3-epoxysuccinamate]",34.72 γ
3,"CCOC(=O)[C@@H]1O[C@H]1C(=O)Nc1ccccc1O (relative stereo) [Compound No. 4, ethyl N-2'-hydroxyphenyl-2,3-epoxysuccinamate]",138.88 γ
4,"CCOC(=O)[C@@H]1O[C@H]1C(=O)Nc1ccc(Br)cc1 (relative stereo) [Compound No. 6, ethyl N-4'-bromophenyl-2,3-epoxysuccinamate]",25.51 γ
5,"CCOC(=O)c1ccccc1NC(=O)[C@@H]1O[C@H]1C(=O)OCC (relative stereo) [Compound No. 7, ethyl N-2'-carboethoxyphenyl-2,3-epoxysuccinamate]",105.93 γ
6,"CCOC(=O)[C@@H]1O[C@H]1C(=O)Nc1c(Cl)cccc1Cl (relative stereo) [Compound No. 8, ethyl N-2',6'-dichlorophenyl-2,3-epoxysuccinamate]",208.33 γ
7,"CCOC(=O)[C@@H]1O[C@H]1C(=O)Nc1c(Br)cc(Br)cc1Br (relative stereo) [Compound No. 9, ethyl N-2',4',6'-tribromophenyl-2,3-epoxysuccinamate]",120.19 γ
8,"CCOC(=O)[C@@H]1O[C@H]1C(=O)Nc1cccc(F)c1 (relative stereo) [Compound No. 10, ethyl N-3'-fluorophenyl-2,3-epoxysuccinamate]",32.05 γ
9,"CCOC(=O)[C@@H]1O[C@H]1C(=O)Nc1ccccn1 (relative stereo) [Compound No. 11, ethyl N-2'-pyridinyl-2,3-epoxysuccinamate]",25.05 γ
10,"CCOC(=O)[C@@H]1O[C@H]1C(=O)Nc1cccc2cccnc12 (relative stereo) [Compound No. 12, ethyl N-8'-quinolinyl-2,3-epoxysuccinamate]",20.16 γ
11,"CCOC(=O)[C@@H]1O[C@H]1C(=O)NCc1ccccc1 (relative stereo) [Compound No. 13, ethyl N-benzyl-2,3-epoxysuccinamate]",13.30 γ
12,"CCOC(=O)[C@@H]1O[C@H]1C(=O)NCc1ccco1 (relative stereo) [Compound No. 14, ethyl N-furfuryl-2,3-epoxysuccinamate]",67.57 γ
13,"CCOC(=O)[C@@H]1O[C@H]1C(=O)NCCc1ccccc1 (relative stereo) [Compound No. 15, ethyl N-phenethyl-2,3-epoxysuccinamate]",26.04 γ
14,"CCCNC(=O)[C@@H]1O[C@H]1C(=O)OCC (relative stereo) [Compound No. 16, ethyl N-propyl-2,3-epoxysuccinamate]",22.73 γ
15,"CCOC(=O)[C@@H]1O[C@H]1C(=O)NCCC(C)C (relative stereo) [Compound No. 17, ethyl N-isoamyl-2,3-epoxysuccinamate]",28.41 γ
16,"CCOC(=O)[C@@H]1O[C@H]1C(=O)NC1CCCC1 (relative stereo) [Compound No. 18, ethyl N-cyclopentyl-2,3-epoxysuccinamate]",22.36 γ
17,"CCOC(=O)[C@@H]1O[C@H]1C(=O)NC1CCCCC1 (relative stereo) [Compound No. 19, ethyl N-cyclohexyl-2,3-epoxysuccinamate]",20.83 γ
18,"CCOC(=O)[C@@H]1O[C@H]1C(=O)NCC1CCCCC1 (relative stereo) [Compound No. 20, ethyl N-cyclohexanemethyl-2,3-epoxysuccinamate]",20.49 γ

row,Structure (SMILES),ID50
1,CCOC(=O)[C@@H]1O[C@H]1C(=O)N1CCOCC1 (relative stereo) [Compound No. 21],93.28 γ
2,"CCOC(=O)[C@@H]1O[C@H]1C(=O)N1CCSCC1 (relative stereo) [Compound No. 22, ethyl N-thiadiethylene-2,3-epoxysuccinamate]",95.01 γ
3,"CCOC(=O)[C@@H]1O[C@H]1C(=O)N1CCN(C)CC1 (relative stereo) [Compound No. 23, ethyl N-N'-methylaminodiethylene-2,3-epoxysuccinamate]",868.05 γ
4,"O=C(Nc1ccc(I)cc1)[C@@H]1O[C@H]1C(=O)OC1CCCC1 (relative stereo) [Compound No. 24, cyclopentyl N-4'-iodophenyl-2,3-epoxysuccinamate]",3.47 γ
5,"O=C(Nc1ccccc1)[C@@H]1O[C@H]1C(=O)OCCC1CCCC1 (relative stereo) [Compound No. 26, 2'-cyclopentylethyl N-phenyl-2,3-epoxysuccinamate]",2.08 γ
6,"O=C(Nc1ccccc1)[C@@H]1O[C@H]1C(=O)OCCCC1CCCCC1 (relative stereo) [Compound No. 27, 3'-cyclohexylpropyl N-phenyl-2,3-epoxysuccinamate]",3.05 γ
7,"O=C(Nc1ccccc1)[C@@H]1O[C@H]1C(=O)Oc1ccccc1 (relative stereo) [Compound No. 28, phenyl N-phenyl-2,3-epoxysuccinamate]",6.41 γ
8,"COc1ccccc1NC(=O)[C@@H]1O[C@H]1C(=O)OCc1ccccc1 (relative stereo) [Compound No. 29, benzyl N-2'-methoxyphenyl-2,3-epoxysuccinamate]",2.91 γ
9,"C=CCOC(=O)[C@@H]1O[C@H]1C(=O)Nc1ccccc1 (relative stereo) [Compound No. 30, allyl N-phenyl-2,3-epoxysuccinamate]",3.68 γ
10,"CCOC(=O)[C@@H]1O[C@H]1C(=O)N(C)CC1CCCCC1 (relative stereo) [Compound No. 32, ethyl N-methyl-N-cyclohexanemethyl-2,3-epoxysuccinamate]",71.40 γ
11,"COC(=O)[C@@H]1O[C@H]1C(=O)Nc1ccccc1C (relative stereo) [Compound No. 35, Methyl N-2'-methylphenyl-2,3-epoxysuccinamate]",16.52 γ
12,"CCCOC(=O)[C@@H]1O[C@H]1C(=O)Nc1ccc(I)cc1 (relative stereo) [Compound No. 36, Propyl N-4'-iodophenyl-2,3-epoxysuccinamate]",4.04 γ
13,"COc1ccccc1NC(=O)[C@H]1O[C@@H]1C(=O)OC(C)C (relative stereo) [Compound No. 37, Isopropyl N-2'-methoxyphenyl-2,3-epoxysuccinamate]",5.81 γ
14,"CC(C)COC(=O)[C@H]1O[C@@H]1C(=O)NCc1ccco1 (relative stereo) [Compound No. 39, Isobutyl N-furfuryl-2,3-epoxysuccinamate]",3.08 γ
15,"CC#CCOC(=O)[C@H]1O[C@@H]1C(=O)NCC (relative stereo) [Compound No. 41, 2'-Butynyl N-ethyl-2,3-epoxysuccinamate]",15.23 γ
16,"CC#CCOC(=O)[C@@H]1O[C@H]1C(=O)NCc1cccs1 (relative stereo) [Compound No. 42, 2'-Butynyl N-thenyl-2,3-epoxysuccinamate]",14.15 γ
17,"CC(C)CCOC(=O)[C@H]1O[C@@H]1C(=O)Nc1ccccc1 (relative stereo) [Compound No. 43, Isoamyl N-phenyl-2,3-epoxysuccinamate]",3.01 γ

# Source: US4387238A, “Epoxysuccinamic acid compounds” (Taisho Pharmaceutical Co., Ltd., priority 1978, dated 1983)
